The target in this experiment is FTase (Homo sapiens, UniProt P49354+P49356). As to the kind of experiment: in vitro assay measuring the inhibition of FTase (FPT IC50), methods of WO95/10516. The conditions noted are these: concentration of compound which inhibits 50% of FPT transferase. The experiment is classed as biochemical. The text has this:
Measurements of pharmacological activity of the present compounds can be made based upon a […] (i.e. FPT lC50), cell mat assay (GGPT lC50) or in vitro tumor activity (Cos Cell lC50) as described by the methods in W095/10516.
FPT lC50 values refer to concentration, in micromoles (µM), of compound which inhibits 50% of FPT transferase

One may read the IC50 as the midpoint of a concentration-inhibition curve.

Sequence of FTase (P49356 whole entry, one chain of several): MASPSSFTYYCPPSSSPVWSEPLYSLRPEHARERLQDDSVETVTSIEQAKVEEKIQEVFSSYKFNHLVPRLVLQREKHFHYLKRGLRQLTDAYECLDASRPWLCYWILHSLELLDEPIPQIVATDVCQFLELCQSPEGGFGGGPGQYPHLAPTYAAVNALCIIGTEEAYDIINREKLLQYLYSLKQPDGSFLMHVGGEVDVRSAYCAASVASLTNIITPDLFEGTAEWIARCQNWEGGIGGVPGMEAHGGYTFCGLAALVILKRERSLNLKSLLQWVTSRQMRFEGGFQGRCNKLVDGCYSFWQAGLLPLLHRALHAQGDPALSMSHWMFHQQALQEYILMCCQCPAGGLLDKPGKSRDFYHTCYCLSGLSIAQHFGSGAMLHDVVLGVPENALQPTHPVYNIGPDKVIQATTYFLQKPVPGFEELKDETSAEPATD

Turning to `CC(C)NC(=O)CC1CN(C(=O)c2ccc3ccccc3c2)CCN1C(=O)Cc1ccncc1` (stereo not shown), the IC50 was more than 50 µM.

The record behind these values is EP0820452B1, “CARBONYL-PIPERAZINYL AND PIPERIDINIL COMPOUNDS WHICH INHIBIT FARNESYL PROTEIN TRANSFERASE” (SCHERING CORPORATION, priority 1995, dated 1996).
